Experimental data as given in US5747336A, “Cloned human genes for muscarinic acetylcholine receptors and cells lines expressing same” (The United States of America as represented by the …, priority 1994, dated 1998).

Legend:
human m2 receptor (Hm2) [1] = biological target: T1, human m2 receptor (Hm2) (Homo sapiens, UniProt P08172)
T1 sequence (P08172 1-466): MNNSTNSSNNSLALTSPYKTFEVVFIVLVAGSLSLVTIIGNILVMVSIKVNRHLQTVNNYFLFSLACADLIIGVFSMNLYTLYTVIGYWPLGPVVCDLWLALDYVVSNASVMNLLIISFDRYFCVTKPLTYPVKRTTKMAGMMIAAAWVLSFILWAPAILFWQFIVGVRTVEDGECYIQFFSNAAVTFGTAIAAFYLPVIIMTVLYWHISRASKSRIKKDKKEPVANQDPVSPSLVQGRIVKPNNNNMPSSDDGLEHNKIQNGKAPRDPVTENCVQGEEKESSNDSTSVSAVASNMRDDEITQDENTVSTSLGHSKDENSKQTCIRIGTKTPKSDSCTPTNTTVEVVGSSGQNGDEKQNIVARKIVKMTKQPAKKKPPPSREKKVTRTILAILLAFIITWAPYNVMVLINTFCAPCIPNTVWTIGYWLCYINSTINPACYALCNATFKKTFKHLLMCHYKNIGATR
From the text: (§1) Data from two to four experiments were independently fit by nonlinear regression to a single mass-action binding site. The average values of the parameters derived from the fits and their standard errors are presented. […] Note Rm1 is the rat m1 receptor, not the human m1 receptor.

human m4 receptor (Hm4) [2] = biological target: T2, human m4 receptor (Hm4) (Homo sapiens, UniProt P08173); assay: biochemical
T2 sequence (P08173 1-479): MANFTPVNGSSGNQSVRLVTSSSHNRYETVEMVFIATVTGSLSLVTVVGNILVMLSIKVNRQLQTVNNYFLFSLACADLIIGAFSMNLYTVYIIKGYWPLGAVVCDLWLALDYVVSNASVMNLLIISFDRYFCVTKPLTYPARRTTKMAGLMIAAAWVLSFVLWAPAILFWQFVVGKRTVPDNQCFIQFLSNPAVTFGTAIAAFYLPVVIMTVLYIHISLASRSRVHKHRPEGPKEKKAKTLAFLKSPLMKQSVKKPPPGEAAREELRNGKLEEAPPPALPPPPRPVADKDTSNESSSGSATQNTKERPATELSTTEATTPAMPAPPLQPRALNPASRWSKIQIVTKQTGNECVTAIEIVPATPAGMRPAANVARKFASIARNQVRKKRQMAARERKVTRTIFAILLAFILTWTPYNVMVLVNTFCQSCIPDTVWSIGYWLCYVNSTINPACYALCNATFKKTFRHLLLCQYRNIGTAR

human m3 receptor (Hm3) [3] = biological target: T3, human m3 receptor (Hm3) (Homo sapiens, UniProt P20309)
T3 sequence (P20309 whole entry): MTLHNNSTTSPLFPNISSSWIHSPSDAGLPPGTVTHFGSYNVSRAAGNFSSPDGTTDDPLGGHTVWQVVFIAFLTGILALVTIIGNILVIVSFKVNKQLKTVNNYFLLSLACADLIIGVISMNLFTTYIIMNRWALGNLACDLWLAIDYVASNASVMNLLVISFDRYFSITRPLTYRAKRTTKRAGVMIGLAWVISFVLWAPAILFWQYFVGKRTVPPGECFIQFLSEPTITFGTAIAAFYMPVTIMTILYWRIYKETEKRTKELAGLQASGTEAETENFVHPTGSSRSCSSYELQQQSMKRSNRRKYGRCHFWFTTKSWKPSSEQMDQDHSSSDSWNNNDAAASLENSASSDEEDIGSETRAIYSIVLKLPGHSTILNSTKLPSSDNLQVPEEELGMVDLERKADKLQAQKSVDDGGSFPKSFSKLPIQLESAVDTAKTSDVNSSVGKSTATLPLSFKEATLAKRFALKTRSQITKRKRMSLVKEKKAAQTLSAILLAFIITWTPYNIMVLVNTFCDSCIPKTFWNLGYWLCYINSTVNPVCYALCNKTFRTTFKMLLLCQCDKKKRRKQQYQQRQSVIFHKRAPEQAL
Experimental: (§2) All membranes, drugs and radioligands were made up in binding buffer which consisted of 25 mM sodium phosphate (pH 7.4) containing 5 mM magnesium chloride. Assays were conducted in 1 ml total volume. Final membrane protein concentrations were 30 ug/ml (m1), 70 ug/ml (m2), 4 μg/ml (m3), 7 μg/ml (m4), and 3 μg/ml (m5). […] Displaceable binding was assessed in the presence of 1 uM atropine sulphate. […]

human m4 receptor (Hm4) [4] = biological target: T2, human m4 receptor (Hm4); conditions: inhibition of 3H-NMS binding
human m3 receptor (Hm3) [5] = biological target: T3, human m3 receptor (Hm3); assay: biochemical
Experimental: as §2

rat m1 receptor (Rm1) [6] = biological target: T4, rat m1 receptor (Rm1) (Rattus norvegicus, UniProt P08482); conditions: inhibition of 3H-NMS binding
T4 sequence (P08482 1-460): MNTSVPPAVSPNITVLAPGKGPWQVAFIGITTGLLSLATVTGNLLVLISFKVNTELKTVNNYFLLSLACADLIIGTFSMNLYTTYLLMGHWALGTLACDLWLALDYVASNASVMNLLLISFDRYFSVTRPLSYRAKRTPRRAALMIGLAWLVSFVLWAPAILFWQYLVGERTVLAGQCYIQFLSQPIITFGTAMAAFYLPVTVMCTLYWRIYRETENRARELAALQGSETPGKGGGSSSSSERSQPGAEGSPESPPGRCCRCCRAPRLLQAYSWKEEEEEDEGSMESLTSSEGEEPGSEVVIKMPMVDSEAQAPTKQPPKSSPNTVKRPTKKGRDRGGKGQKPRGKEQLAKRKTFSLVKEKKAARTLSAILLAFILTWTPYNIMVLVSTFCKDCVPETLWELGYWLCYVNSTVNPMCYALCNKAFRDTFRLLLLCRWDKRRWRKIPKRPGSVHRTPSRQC
Experimental: as §2

rat m1 receptor (Rm1) [7] = biological target: T4, rat m1 receptor (Rm1); assay: biochemical
Experimental: as §2

human m2 receptor (Hm2) [8] = biological target: T1, human m2 receptor (Hm2); assay: biochemical
From the text: as §1

human m5 receptor (Hm5) = biological target: T5, human m5 receptor (Hm5) (Homo sapiens, UniProt P08912); assay: 3H-NMS binding assay (direct and inhibition), membranes of transfected CHO cells, Hm5
T5 construct: expressed in transfected cells
T5 sequence (P08912 1-532): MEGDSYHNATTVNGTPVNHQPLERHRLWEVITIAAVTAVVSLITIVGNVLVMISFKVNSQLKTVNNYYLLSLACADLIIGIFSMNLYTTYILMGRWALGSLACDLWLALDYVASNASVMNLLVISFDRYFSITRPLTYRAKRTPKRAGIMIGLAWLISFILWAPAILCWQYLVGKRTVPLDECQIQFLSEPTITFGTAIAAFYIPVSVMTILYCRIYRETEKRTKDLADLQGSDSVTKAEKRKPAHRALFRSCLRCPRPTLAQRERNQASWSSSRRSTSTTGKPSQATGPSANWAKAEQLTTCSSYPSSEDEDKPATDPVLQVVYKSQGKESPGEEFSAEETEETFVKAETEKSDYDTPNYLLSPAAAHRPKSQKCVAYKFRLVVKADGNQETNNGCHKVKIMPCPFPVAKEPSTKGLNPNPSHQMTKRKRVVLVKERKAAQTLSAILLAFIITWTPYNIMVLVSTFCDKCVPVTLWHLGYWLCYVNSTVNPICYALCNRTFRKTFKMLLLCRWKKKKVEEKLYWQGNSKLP
Experimental: Cells were seeded into six well plates at a density of 10^5 cells/well in growth medium consisting of Minimum Eagle's, Medium supplemented with 10% fetal calf serum (Gibco) and 1000 U each of penicillin G and streptomycin and 4 mM glutamine (Whitaker M.A Bioproducts). Except for the overnight (10-16 hours) transfection (see below) cells were incubated in a humidified incubator at 37° C. and 5% CO2. […] Cells were transferred to a humidified incubator at 35° C. and 3% CO2 and incubated overnight (10-16 hours). […] At the end of selection, transfected cells were harvested and plated at limiting dilution into 96-well plates.
Transfected cells were grown to confluence, washed and scraped into cold binding buffer and homogenized for 30 seconds in a Tekmar Tissumizer (setting 50). Membranes were pelleted at 14,000 g, rehomogenized and the membrane protein determined using a Biorad Protein assay dye reagent. Membrane concentration was adjusted to 1mg protein/ml and stored frozen at -80° C. prior to use.
All membranes, drugs and radioligands were made up in binding buffer which consisted of 25 mM sodium phosphate (pH 7.4) containing 5 mM magnesium chloride. Assays were conducted in 1 ml total volume. Final membrane protein concentrations were 30 ug/ml (m1), 70 ug/ml (m2), 4 μg/ml (m3), 7 μg/ml (m4), and 3 μg/ml (m5). […] Displaceable binding was assessed in the presence of 1 uM atropine sulphate. Binding was terminated by filtration through a Brandel cell harvester onto Whatman GF/C filters.
Data from two to four experiments were independently fit by nonlinear regression to a single mass-action binding site. […] Note Rm1 is the rat m1 receptor, not the human m1 receptor.

| Structure (SMILES) | Ki (human m2 receptor (Hm2) [1]; Hm2, inhibition of 3H-NMS binding) [nM] | IC50 (human m4 receptor (Hm4) [2]) [nM] | Ki (human m3 receptor (Hm3) [3]) [nM] | Ki (human m4 receptor (Hm4) [4]; Hm4) [nM] | average Hill number (H) (human m4 receptor (Hm4) [4]; m4, fit to single mass action binding site with variable Hill number) | IC50 (human m3 receptor (Hm3) [5]) [µM] | Ki (rat m1 receptor (Rm1) [6]) [nM] | IC50 (rat m1 receptor (Rm1) [7]) [µM] | IC50 (human m2 receptor (Hm2) [8]) [nM] | IC50 (human m5 receptor (Hm5)) [µM] | Ki (human m5 receptor (Hm5); Hm5, inhibition of 3H-NMS binding) [nM] | Bmax (human m2 receptor (Hm2) [1]; Hm2 in CHO cell membranes, direct binding of 3H-NMS) [fmol/mg protein] | Bmax (human m5 receptor (Hm5); Hm5 in CHO cell membranes, direct binding of 3H-NMS) [fmol/mg protein] |
| --- | --- | --- | --- | --- | --- | --- | --- | --- | --- | --- | --- | --- | --- |
| CCN(CC)CC1CCCCN1CC(=O)N1c2ccccc2C(=O)Nc2cccnc21 (stereo not shown) [AF-DX 116] | 260 | 1800 ± 300 | 820 | 450 | 0.79±0.03 | 3.1 ± 0.4 | 1300 | 4.3 ± 1.2 | 360 ± 230 | 6.8 ± 0.9 | 2800 |  |  |
| C[N+]1(C)C2CC(OC(=O)C(CO)c3ccccc3)CC1C1OC12 (single isomer, unassigned) [^3 H-NMS, N-methylscopolamine] |  |  |  |  |  |  |  |  |  |  |  | 121 ± 63 | 2236 ± 590 |
